Source: US7803940B2, “Heteromonocyclic compound or a salt thereof having strong antihypertensive action, insulin sensitizing activity and the like production thereof and use thereof for prophylaxis or treatment of cardiovascular diseases, metabolic diseases and/or central nervous system diseases” (Takeda Pharmaceutical Company Limited, priority 2006, dated 2010)
Structures can show the parent of a compound that is named as a salt. Where two headings read alike, the source gives them in different places.

Legend:
PPARγ = target: T1, PPARγ (Homo sapiens, UniProt P37231); assay: Evaluation of PPARγ activating action (luciferase reporter, PPARγ:RXRα:4ERPP/CHO-K1 cells); assay type: cell-based; conditions: for activation at 1 µM: CHO-K1, 24 h, read-out: PPARγ activating action (activation % (10^−6 M))
T1 construct: expressed in transfected cells; host or cells: CHO-K1
T1 sequence (P37231 1-477 isoform P37231-2): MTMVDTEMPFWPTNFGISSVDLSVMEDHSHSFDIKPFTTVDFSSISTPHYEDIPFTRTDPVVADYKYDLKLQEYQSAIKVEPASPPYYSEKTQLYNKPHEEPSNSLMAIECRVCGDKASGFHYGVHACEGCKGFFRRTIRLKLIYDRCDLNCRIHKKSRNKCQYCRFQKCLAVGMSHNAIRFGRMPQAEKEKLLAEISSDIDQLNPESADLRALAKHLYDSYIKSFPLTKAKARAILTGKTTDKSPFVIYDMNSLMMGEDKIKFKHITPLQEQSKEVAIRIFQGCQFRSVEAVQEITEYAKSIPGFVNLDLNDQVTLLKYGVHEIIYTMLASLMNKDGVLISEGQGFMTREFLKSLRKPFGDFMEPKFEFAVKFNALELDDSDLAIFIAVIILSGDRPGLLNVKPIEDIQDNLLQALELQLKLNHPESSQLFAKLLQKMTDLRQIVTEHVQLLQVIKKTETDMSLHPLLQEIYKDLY
T1 sequence (P19793 1-462 partner): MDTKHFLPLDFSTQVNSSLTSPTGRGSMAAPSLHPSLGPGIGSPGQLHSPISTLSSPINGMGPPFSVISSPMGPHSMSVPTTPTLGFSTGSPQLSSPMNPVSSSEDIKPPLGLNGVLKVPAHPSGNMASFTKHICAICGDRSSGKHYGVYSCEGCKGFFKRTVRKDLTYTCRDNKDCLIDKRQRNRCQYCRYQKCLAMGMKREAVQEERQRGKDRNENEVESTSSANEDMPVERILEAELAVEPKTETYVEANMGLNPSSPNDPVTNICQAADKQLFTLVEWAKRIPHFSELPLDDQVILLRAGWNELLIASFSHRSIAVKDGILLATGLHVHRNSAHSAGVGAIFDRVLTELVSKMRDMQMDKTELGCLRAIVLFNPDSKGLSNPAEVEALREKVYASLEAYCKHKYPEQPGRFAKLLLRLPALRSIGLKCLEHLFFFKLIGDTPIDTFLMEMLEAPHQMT
Experimental: PPARγ:RXRα:4ERPP/CHO-K1 cells obtained in the following Reference Example 5 were cultured in F12 medium [manufactured by INVITROGEN, USA] containing 10% fetal bovine serum [manufactured by MOREGATE, Australia], seeded in a 96-well half area white plate [manufactured by Corning Coster Corporation, USA] at the density of 5×10^3 cells/well and cultured in a CO2 gas incubator at 37° C. overnight.
Then the medium was removed from the 96-well half area white plate, 45 μl of Ham's F12 medium containing 0.1% fatty acid-free bovine serum albumin (BSA) and 5 μl of test compound were added, and the cells were cultured in a CO2 gas incubator at 37° C. for 1 day. The medium was removed and 20 μl of PicaGene 7.5 [manufactured by TOYO INK MFG. CO., LTD., Japan] diluted 2-fold with HBSS (HANKS' BALANCED SALT SOLUTION) [manufactured by BIO WHITTAKER, USA] was added. After stirring, the luciferase activity was determined using 1420 ARVO Multilabel Counter [manufactured by PerkinElmer, USA].
The percent (%) was calculated from the luciferase activity of each test compound when the luciferase activity of the control compound (compound X: 5-[3-(4-{[2-(2-furyl)-5-methyl-1,3-oxazol-4-yl]methoxy}-3-methoxyphenyl)propyl]-1,3-oxazolidine-2,4-dione) (1 μM) was 100% and that of the test compound non-administration group was 0%.
A CHO-K1 cell cultured in a 150 cm^2 cell culture flask [manufactured by Corning Costar Corporation, USA] containing Ham's F12 medium [manufactured by INVITROGEN, USA] supplemented with 10% fetal bovine serum [manufactured by INVITROGEN, USA] was scraped by treating with 0.5 g/L trypsin-0.2 g/L EDTA (ethylenediaminetetraacetic acid) [manufactured by Life Technologies, Inc., USA], and then the cell was washed with PBS (Phosphate-buffered saline) [manufactured by INVITROGEN, USA], centrifuged (1000 rpm, 5 minutes) and suspended in PBS. Subsequently, DNA was introduced into the cell under the conditions shown below using GENE PULSER [manufactured by Bio-Rad Laboratories, USA].
Namely, to a cuvette having a 0.4 cm gap were added 8×10^6 cells and 10 μg of plasmid pVgRXR2-hPPARγ obtained in Reference Example 4 and 10 μg of reporter plasmid pGL3-4ERPP-TK neo obtained in Reference Example 3, which was subjected to electroporation at the voltage of 0.25 kV under the capacitance of 960 μF. Subsequently, the cell was transferred into a F12 medium containing 10% fetal bovine serum and cultured for 24 hours, and then the cell was scraped again and centrifuged, and then suspended in Ham's F12 medium containing 10% fetal bovine serum supplemented with 500 μg/ml of Geneticin [manufactured by INVITROGEN, USA] and 250 μg/ml of Zeocin [manufactured by INVITROGEN, USA]. The obtained suspension was diluted to the density of 1 cells/ml and inoculated in a 96-well plate [manufactured by Corning Costar Corporation, USA], which was cultured in a CO2 gas incubator at 37° C., whereby obtaining a Geneticin- and Zeocin-resistant transformant.
Subsequently, after the transformant cell line thus obtained was cultured in a 24-well plate [manufactured by Corning Costar Corporation, USA], a cell line in which the luciferase was expressed and induced, i.e., PPARγ:RXRα:4ERPP/CHO-K1 cell was selected by the addition of 10 μM pioglitazone hydrochloride.

human AT1 receptor = target: T2, human AT1 receptor (Homo sapiens, UniProt P30556); assay: Binding assay using human AT1 receptor-expressing CHO-K1 cell membrane fraction ([125I]-angiotensin II); conditions: 22.5 pM [125I]-angiotensin II, 9 μg AT1 membrane, 1 hr room temperature; read-out: AT1 receptor binding inhibitory action (IC50 (nM))
T2 construct: expressed in transfected cells; host or cells: CHO-K1
T2 sequence (P30556 1-359): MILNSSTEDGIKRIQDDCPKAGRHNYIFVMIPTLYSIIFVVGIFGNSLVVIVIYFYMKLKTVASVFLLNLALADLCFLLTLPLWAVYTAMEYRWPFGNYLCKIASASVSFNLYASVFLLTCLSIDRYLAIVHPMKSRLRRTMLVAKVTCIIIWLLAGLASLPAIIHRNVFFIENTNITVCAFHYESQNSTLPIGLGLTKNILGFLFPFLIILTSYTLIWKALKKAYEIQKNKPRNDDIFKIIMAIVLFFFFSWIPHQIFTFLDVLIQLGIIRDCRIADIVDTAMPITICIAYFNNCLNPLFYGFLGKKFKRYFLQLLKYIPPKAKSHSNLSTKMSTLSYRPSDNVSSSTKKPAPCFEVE
Experimental: The membrane fraction for human AT1 receptor binding assay was prepared as follows. CHO-K1 cell capable of stable expression of human AT1 receptor was cultured, recovered, suspended in homogenize buffer (10 mM NaHCO3 (pH 7.4), 5 mM EDTA, 1×Complete EDTA free) [manufactured by Roche, Switzerland], and homogenized. The homogenate was centrifuged at low-speed (900×g, 10 min, 4° C.), and the supernatant was recovered and ultracentrifuged (90,000×g, 1 hr, 4° C.). The supernatant was discarded, and the pellets were resuspended in resuspension buffer (50 mM Tris (pH 7.4), 1 mM EDTA, 1×Complete EDTA free).
The binding assay was performed in the presence of 22.5 pM [^125I]-angiotensin II [manufactured by PerkinElmer, USA], 9 μg of AT1 membrane and test compound in 100 μL (total reaction volume) of reaction buffer (50 mM Tris (pH 7.4), 10 mM MgCl2 supplemented or not supplemented with 0.3 mg/mL fatty acid-free bovine serum albumin [manufactured by Wako Pure Chemical Industries, Ltd., Japan]). […] The filter was air-dried, and [^125I]-angiotensin II binding radioactivity was assayed with Top Count scintillation counter. Total binding was measured in the presence of 1% DMSO and nonspecific binding was measured in the presence of 1 μM CV-11974. […]

[1] = test compound 10^−6 M, luciferase activity of control compound X (1 μM) = 100%, non-administration group = 0%

SMILES	PPARγ activating action (activation % (10^−6 M)) (PPARγ; [1])	other results
CCCCc1nc(C2CC2)n(-c2ccccc2)c(=O)c1Cc1ccc(-c2ccccc2-c2noc([O-])n2)cc1.[K+] [Example 310, 6-butyl-2-cyclopropyl-5-{[2′-(5-oxo-4,5-dihydro-1,2,4-oxadiazol-3-yl)biphenyl-4-yl]methyl}-3-phenylpyrimidin-4(3H)-one potassium salt]	27.1%	–
CCCc1nc(CC)n(-c2ccc3c(c2)CCO3)c(=O)c1Cc1ccc(-c2ccccc2-c2noc([O-])n2)cc1.[K+] [Example 311, 3-(2,3-dihydro-1-benzofuran-5-yl)-2-ethyl-5-{[2′-(5-oxo-4,5-dihydro-1,2,4-oxadiazol-3-yl)biphenyl-4-yl]methyl}-6-propylpyrimidin-4(3H)-one potassium salt]	38.1%	–
CCCc1nc(C(F)F)n(-c2ccc(OC)cc2)c(=O)c1Cc1ccc(-c2ccccc2-c2noc(=O)[nH]2)cc1 [Example 410, 2-(difluoromethyl)-3-(4-methoxyphenyl)-5-{[2′-(5-oxo-4,5-dihydro-1,2,4-oxadiazol-3-yl)biphenyl-4-yl]methyl}-6-propylpyrimidin-4(3H)-one]	–	activation at 1 µM (PPARγ; [1]): 19.5%
CCCCc1nc(CC)n(CC(=O)C(C)(C)C)c(=O)c1Cc1ccc(-c2ccccc2-c2noc(O)n2)cc1 [Example 309, 6-butyl-3-(3,3-dimethyl-2-oxobutyl)-2-ethyl-5-{[2′-(5-oxo-4,5-dihydro-1,2,4-oxadiazol-3-yl)biphenyl-4-yl]methyl}pyrimidin-4(3H)-one potassium salt]	–	activation at 1 µM (PPARγ): 31.5%; IC50 (human AT1 receptor): 1.6 nM
CCCc1nc(CC)n(-c2ccc(OC)cc2)c(=O)c1Cc1ccc(-c2ccccc2-c2noc([O-])n2)cc1.[K+] [Example 313, 2-ethyl-3-(4-methoxyphenyl)-5-{[2′-(5-oxo-4,5-dihydro-1,2,4-oxadiazol-3-yl)biphenyl-4-yl]methyl}-6-propylpyrimidin-4(3H)-one potassium salt]	31.0%	–
CCCc1nc(CC)n(-c2ccc3c(c2)CC(C)O3)c(=O)c1Cc1ccc(-c2ccccc2-c2noc([O-])n2)cc1.[K+] (centres unmarked) [Example 312, 2-ethyl-3-(2-methyl-2,3-dihydro-1-benzofuran-5-yl)-5-{[2′-(5-oxo-4,5-dihydro-1,2,4-oxadiazol-3-yl)biphenyl-4-yl]methyl}-6-propylpyrimidin-4(3H)-one potassium salt]	50.3%	–
CCCc1nc(C)c(Oc2ccc(OC)cc2)c(=O)n1Cc1ccc(-c2ccccc2-c2noc(O)n2)cc1 [Example 476, 5-(4-methoxyphenoxy)-6-methyl-3-{[2′-(5-oxo-4,5-dihydro-1,2,4-oxadiazol-3-yl)biphenyl-4-yl]methyl}-2-propylpyrimidin-4(3H)-one potassium salt]	18.5%	–
CCCc1nc(CC)c(C(O)C(C)C)c(=O)n1Cc1ccc(-c2ccccc2-c2noc(O)n2)cc1 (centres unmarked) [Example 473, 6-ethyl-5-(1-hydroxy-2-methylpropyl)-3-{[2′-(5-oxo-4,5-dihydro-1,2,4-oxadiazol-3-yl)biphenyl-4-yl]methyl}-2-propylpyrimidin-4(3H)-one potassium salt]	15.7%	–
CCCc1nc(CC)c(Oc2cccc(OC)c2)c(=O)n1Cc1ccc(-c2ccccc2-c2noc(O)n2)cc1 [Example 488, 6-ethyl-5-(3-methoxyphenoxy)-3-{[2′-(5-oxo-4,5-dihydro-1,2,4-oxadiazol-3-yl)biphenyl-4-yl]methyl}-2-propylpyrimidin-4(3H)-one potassium salt]	16.7%	–
CCCCc1nc(CC)n(Cc2ccccc2)c(=O)c1Cc1ccc(-c2ccccc2-c2noc(=O)[nH]2)cc1 [Example 105, 3-benzyl-6-butyl-2-ethyl-5-{[2′-(5-oxo-4,5-dihydro-1,2,4-oxadiazol-3-yl)biphenyl-4-yl]methyl}pyrimidin-4(3H)-one]	64.1%	–
